Data taken from patent publication US8802700B2 (Vertex Pharmaceuticals Incorporated, priority 2010, dated 2014).

Molecular target: T1, ΔF508-CFTR (Homo sapiens, UniProt P13569, DEL508-508)
T1 construct: expressed in transfected cells
Assay: Membrane potential optical assay (FRET voltage-sensor dyes, VIPR), identification of potentiator compounds
Assay type: cell-based
Details: Table 3; assay not given
Outline: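 NIH3T3 mouse fibroblasts stably expressing ΔF508-CFTR, cultured 24 h at 27 °C, were loaded with FRET voltage dyes CC2-DMPE and DiSBAC2(3). Double-addition format: first addition of Cl⁻-free (gluconate) medium with or without compound; membrane-potential change read as fluorescence on VIPR II.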

T1 sequence (P13569 with tags, fused parts or gaps DEL508-508): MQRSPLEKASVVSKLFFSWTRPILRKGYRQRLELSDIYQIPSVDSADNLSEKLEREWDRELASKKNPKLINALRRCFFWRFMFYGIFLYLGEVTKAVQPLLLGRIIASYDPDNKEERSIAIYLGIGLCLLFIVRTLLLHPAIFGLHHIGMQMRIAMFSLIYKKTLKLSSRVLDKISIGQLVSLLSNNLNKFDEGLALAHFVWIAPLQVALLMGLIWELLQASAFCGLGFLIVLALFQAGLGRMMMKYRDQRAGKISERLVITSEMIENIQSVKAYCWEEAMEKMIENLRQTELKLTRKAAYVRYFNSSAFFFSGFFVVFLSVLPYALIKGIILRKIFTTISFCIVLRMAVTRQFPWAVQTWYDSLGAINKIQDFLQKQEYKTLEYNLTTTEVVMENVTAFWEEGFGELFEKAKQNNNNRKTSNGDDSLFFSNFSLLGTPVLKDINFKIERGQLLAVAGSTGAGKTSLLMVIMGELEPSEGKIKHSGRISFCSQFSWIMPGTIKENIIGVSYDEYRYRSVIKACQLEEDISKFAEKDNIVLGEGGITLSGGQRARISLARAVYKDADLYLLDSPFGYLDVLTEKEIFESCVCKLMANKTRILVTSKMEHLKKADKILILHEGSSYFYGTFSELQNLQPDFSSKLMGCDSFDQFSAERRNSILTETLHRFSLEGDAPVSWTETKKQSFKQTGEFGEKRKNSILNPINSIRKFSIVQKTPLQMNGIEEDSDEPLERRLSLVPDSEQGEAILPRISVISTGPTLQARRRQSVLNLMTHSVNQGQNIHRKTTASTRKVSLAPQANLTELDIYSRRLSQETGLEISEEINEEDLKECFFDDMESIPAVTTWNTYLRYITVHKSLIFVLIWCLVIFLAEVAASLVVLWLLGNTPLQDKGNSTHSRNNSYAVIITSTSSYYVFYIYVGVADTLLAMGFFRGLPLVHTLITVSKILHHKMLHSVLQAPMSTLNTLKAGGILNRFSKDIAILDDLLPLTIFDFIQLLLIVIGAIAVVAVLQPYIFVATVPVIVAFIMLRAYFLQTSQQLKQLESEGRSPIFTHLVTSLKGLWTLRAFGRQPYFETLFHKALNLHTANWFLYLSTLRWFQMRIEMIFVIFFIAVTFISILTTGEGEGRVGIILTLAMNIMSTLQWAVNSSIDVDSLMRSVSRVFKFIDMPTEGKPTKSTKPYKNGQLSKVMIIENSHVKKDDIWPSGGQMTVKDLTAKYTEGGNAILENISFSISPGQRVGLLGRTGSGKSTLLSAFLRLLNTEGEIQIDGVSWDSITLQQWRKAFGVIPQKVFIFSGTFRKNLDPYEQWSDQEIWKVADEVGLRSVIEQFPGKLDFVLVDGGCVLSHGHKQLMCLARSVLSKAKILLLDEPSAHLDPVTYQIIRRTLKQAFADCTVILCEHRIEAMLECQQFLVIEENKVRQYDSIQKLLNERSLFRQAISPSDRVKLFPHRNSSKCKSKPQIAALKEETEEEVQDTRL

Row | EC50 [µM] | SMILES
1 | < 10 | COC(=O)c1cccc(-c2ccccc2NC(=O)c2c[nH]c3ccccc3c2=O)c1 [Compound 68, 3-[2-[(4-oxo-1H-quinolin-3-yl)carbonylamino]phenyl]benzoic acid methyl ester]
2 | 10 to 25 | CCCc1ccc(NC(C)=O)cc1NC(=O)c1c[nH]c2ccccc2c1=O [Compound 232, N-(5-acetylamino-2-propyl-phenyl)-4-oxo-1H-quinoline-3-carboxamide]

Same assay, conditions: Table 3; assay not given; read-out: % Activity (% Efficacy, relative efficacy)

Row | SMILES | Emax [%]
3 | Cc1cccc2[nH]cc(C(=O)Nc3ccc(N4CCC[C@@H]4C)nc3C(F)(F)F)c(=O)c12 [Compound 581, (S)-5-methyl-N-(6-(2-methylpyrrolidin-1-yl)-2-(trifluoromethyl)pyridin-3-yl)-4-oxo-1,4-dihydroquinoline-3-carboxamide] | 25 to 100
4 | CC1CCN(c2ccccc2NC(=O)c2c[nH]c3ccccc3c2=O)CC1 [Compound 372, N-[2-(4-methyl-1-piperidyl)phenyl]-4-oxo-1H-quinoline-3-carboxamide] | 25 to 100
5 | O=C(Nc1ccc(C(F)(F)F)cc1Cl)c1c[nH]c2ccc(F)cc2c1=O [Compound 636, N-[2-chloro-4-(trifluoromethyl)phenyl]-6-fluoro-4-oxo-1H-quinoline-3-carboxamide] | < 25
6 | O=C(Nc1ccc(C(F)(F)F)cc1Cl)c1c[nH]c2cccc(O)c2c1=O [Compound 635, N-[2-chloro-4-(trifluoromethyl)phenyl]-5-hydroxy-4-oxo-1H-quinoline-3-carboxamide] | 25 to 100
7 | O=C(Nc1ccc2c(C3CCCC3)c[nH]c2c1)c1c[nH]c2ccccc2c1=O [Compound 186, N-(3-cyclopentyl-1H-indol-6-yl)-4-oxo-1H-quinoline-3-carboxamide] | 25 to 100
8 | N#Cc1ccc(NC(=O)c2c[nH]c3ccccc3c2=O)cc1 [Compound 194, N-(4-cyanophenyl)-4-oxo-1H-quinoline-3-carboxamide] | < 25
9 | N#CCc1c[nH]c2cc(NC(=O)c3c[nH]c4ccccc4c3=O)ccc12 [Compound 96, N-[3-(cyanomethyl)-1H-indol-6-yl]-4-oxo-1H-quinoline-3-carboxamide] | 25 to 100
10 | CCCc1ccc(NC(=O)OC)cc1NC(=O)c1c[nH]c2ccccc2c1=O [Compound 471, [3-[(4-oxo-1H-quinolin-3-yl)carbonylamino]-4-propyl-phenyl]aminoformic acid methyl ester] | 25 to 100
11 | CCCc1ccc(NC(C)=O)cc1NC(=O)c1c[nH]c2ccccc2c1=O [Compound 232, N-(5-acetylamino-2-propyl-phenyl)-4-oxo-1H-quinoline-3-carboxamide] | 25 to 100
12 | Cc1cccc2[nH]cc(C(=O)Nc3cc(O)c(C4(C)CCCCC4)cc3F)c(=O)c12 [Compound 498, N-[2-fluoro-5-hydroxy-4-(1-methylcyclohexyl)-phenyl]-5-methyl-4-oxo-1H-quinoline-3-carboxamide] | 25 to 100
13 | Cc1cccnc1NC(=O)c1c[nH]c2ccccc2c1=O [Compound 192, N-(3-methyl-2-pyridyl)-4-oxo-1H-quinoline-3-carboxamide] | < 25
14 | CCOc1ccc2[nH]cc(C(=O)Nc3cc4[nH]ccc4cc3C(C)(C)C)c(=O)c2c1 [Compound 681, 6-ethoxy-4-oxo-N-(5-tert-butyl-1H-indol-6-yl)-1H-quinoline-3-carboxamide] | 25 to 100
15 | O=C(Nc1ccc(OC(F)(F)F)cc1)c1c[nH]c2ccccc2c1=O [Compound 176, 4-oxo-N-[4-(trifluoromethoxy)phenyl]-1H-quinoline-3-carboxamide] | 25 to 100
16 | CCc1ccc2ncc(C(=O)Nc3ccc4cc[nH]c4c3)c(O)c2c1 [Compound 67, 6-ethyl-4-hydroxy-N-(1H-indol-6-yl)quinoline-3-carboxamide] | 25 to 100
17 | CC(C)(C)c1ccc(NC(=O)c2c[nH]c3ccccc3c2=O)c(C(C)(C)C)c1O [Compound 594, N-(3-hydroxy-2,4-ditert-butyl-phenyl)-4-oxo-1H-quinoline-3-carboxamide] | > 100
18 | CC(C)(C)OC(=O)N1CCC2(CCNc3cc(NC(=O)c4c[nH]c5ccccc5c4=O)ccc32)CC1 [Compound 238, 7′-[(4-oxo-1H-quinolin-3-ylcarbonyl)amino]-spiro[piperidine-4,4′(1′H)-quinoline], 2′,3′-dihydro-carboxylic acid tert-butyl ester] | 25 to 100
19 | CCc1c[nH]c2cc(NC(=O)c3c[nH]c4ccccc4c3=O)ccc12 [Compound 383, N-(3-ethyl-1H-indol-6-yl)-4-oxo-1H-quinoline-3-carboxamide] | 25 to 100

The remaining lines, values ahead:

Row | Emax [%] | SMILES
20 | 25 to 100 | COC(=O)c1cccc(-c2ccccc2NC(=O)c2c[nH]c3ccccc3c2=O)c1 [Compound 68, 3-[2-[(4-oxo-1H-quinolin-3-yl)carbonylamino]phenyl]benzoic acid methyl ester]
21 | > 100 | CCOc1cccc(-c2ccccc2NC(=O)c2c[nH]c3ccccc3c2=O)c1 [Compound 306, N-[2-(3-ethoxyphenyl)phenyl]-4-oxo-1H-quinoline-3-carboxamide]
22 | 25 to 100 | O=C(Nc1ccccc1-c1cccc(F)c1F)c1c[nH]c2ccccc2c1=O [Compound 285, N-[2-(2,3-difluorophenyl)phenyl]-4-oxo-1H-quinoline-3-carboxamide]
23 | < 25 | O=C(Nc1ccccc1CCO)c1c[nH]c2ccccc2c1=O [Compound 40, N-[2-(2-hydroxyethyl)phenyl]-4-oxo-1H-quinoline-3-carboxamide]
24 | 25 to 100 | O=C(Nc1ccccc1-c1cc2ccccc2s1)c1c[nH]c2ccccc2c1=O [Compound 172, N-(2-(benzo[b]thiophen-2-yl)phenyl)-1,4-dihydro-4-oxoquinoline-3-carboxamide]
25 | 25 to 100 | O=C(Nc1ccc2ccccc2c1)c1c[nH]c2ccccc2c1=O [Compound 481, N-(2-naphthyl)-4-oxo-1H-quinoline-3-carboxamide]
26 | 25 to 100 | O=C(Nc1cc(Cl)ccc1Oc1ccccc1)c1c[nH]c2ccccc2c1=O [Compound 292, N-(5-chloro-2-phenoxy-phenyl)-4-oxo-1H-quinoline-3-carboxamide]
27 | 25 to 100 | O=C(Nc1ccccc1-c1ccccc1F)c1c[nH]c2ccccc2c1=O [Compound 313, N-[2-(2-fluorophenyl)phenyl]-4-oxo-1H-quinoline-3-carboxamide]
28 | 25 to 100 | CSc1ccccc1NC(=O)c1c[nH]c2ccccc2c1=O [Compound 229, N-(2-methylsulfanylphenyl)-4-oxo-1H-quinoline-3-carboxamide]
29 | < 25 | NS(=O)(=O)c1ccccc1NC(=O)c1c[nH]c2ccccc2c1=O [Compound 78, 4-oxo-N-(2-sulfamoylphenyl)-1H-quinoline-3-carboxamide]
30 | 25 to 100 | O=C(Nc1ccc(-c2ccccc2CNC(=O)C(F)(F)F)cc1)c1c[nH]c2ccccc2c1=O [Compound 224, 4-oxo-N-[4-[2-[(2,2,2-trifluoroacetyl)aminomethyl]phenyl]phenyl]-1H-quinoline-3-carboxamide]
31 | > 100 | COc1ccc(C(C)C)cc1-c1ccccc1NC(=O)c1c[nH]c2ccccc2c1=O [Compound 59, N-[2-(5-isopropyl-2-methoxy-phenyl)phenyl]-4-oxo-1H-quinoline-3-carboxamide]
32 | 25 to 100 | O=C(Nc1ccccc1)c1c[nH]c2ccccc2c1=O [Compound 215, 4-Oxo-N-phenyl-1H-quinoline-3-carboxamide]
33 | 25 to 100 | O=C(Nc1ccccc1-c1ccc(CO)cc1)c1c[nH]c2ccccc2c1=O [Compound 302, N-[2-[4-(hydroxymethyl)phenyl]phenyl]-4-oxo-1H-quinoline-3-carboxamide]
34 | < 25 | O=C(Nc1ccccc1-c1nc2ccccc2[nH]1)c1c[nH]c2ccccc2c1=O [Compound 227, N-[2-(3H-benzoimidazol-2-yl)phenyl]-4-oxo-1H-quinoline-3-carboxamide]
